Each block holds one compound with its values, some of them ahead of it.
Assays:
Angiotensin II receptor [1] = molecular target: T1, Angiotensin II receptor (Rattus norvegicus, UniProt P29089+P25095+P35351); assay: Tested for inhibition of radioligand [Sar1,Ile5,8]AII binding to angiotensin II receptor in rat uterus
T1 sequence (P29089 whole entry): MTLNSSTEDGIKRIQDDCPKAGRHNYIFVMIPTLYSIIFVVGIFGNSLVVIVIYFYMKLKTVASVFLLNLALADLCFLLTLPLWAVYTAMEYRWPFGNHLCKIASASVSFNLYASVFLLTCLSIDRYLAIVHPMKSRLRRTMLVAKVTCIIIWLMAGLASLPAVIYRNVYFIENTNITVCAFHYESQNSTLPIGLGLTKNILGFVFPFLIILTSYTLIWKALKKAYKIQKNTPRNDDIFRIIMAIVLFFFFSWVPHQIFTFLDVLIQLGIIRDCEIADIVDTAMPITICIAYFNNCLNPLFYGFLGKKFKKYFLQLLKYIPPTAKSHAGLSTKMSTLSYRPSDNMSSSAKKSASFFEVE
T1 sequence (P25095 whole entry): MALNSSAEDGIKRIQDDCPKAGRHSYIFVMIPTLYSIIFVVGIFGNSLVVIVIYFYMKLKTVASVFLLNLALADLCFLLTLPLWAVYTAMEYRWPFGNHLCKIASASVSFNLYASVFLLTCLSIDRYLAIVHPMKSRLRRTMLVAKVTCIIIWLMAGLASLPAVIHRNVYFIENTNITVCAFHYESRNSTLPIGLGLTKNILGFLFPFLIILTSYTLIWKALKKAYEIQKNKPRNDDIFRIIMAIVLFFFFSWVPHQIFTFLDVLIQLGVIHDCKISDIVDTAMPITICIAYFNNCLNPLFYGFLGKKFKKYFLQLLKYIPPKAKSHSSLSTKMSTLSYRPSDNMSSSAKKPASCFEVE
T1 sequence (P35351 whole entry): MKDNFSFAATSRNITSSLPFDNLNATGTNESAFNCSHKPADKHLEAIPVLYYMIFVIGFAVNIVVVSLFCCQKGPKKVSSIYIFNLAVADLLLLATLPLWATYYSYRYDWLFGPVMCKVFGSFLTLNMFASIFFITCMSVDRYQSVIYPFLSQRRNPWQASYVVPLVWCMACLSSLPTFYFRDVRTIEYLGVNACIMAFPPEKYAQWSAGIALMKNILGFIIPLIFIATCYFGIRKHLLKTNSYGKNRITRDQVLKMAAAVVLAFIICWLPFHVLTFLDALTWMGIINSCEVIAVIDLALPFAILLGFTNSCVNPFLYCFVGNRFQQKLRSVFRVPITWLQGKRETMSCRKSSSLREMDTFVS

Angiotensin II receptor [2] = molecular target: T1, Angiotensin II receptor; assay: Tested for inhibition of radioligand [Sar1,Ile5,8]AII binding to angiotensin II receptor in rat brain; format: tissue-based
Rattus norvegicus [3] = species: Rattus norvegicus; assay: Agonistic activity in rat uterine preparations; format: functional
Rattus norvegicus [4] = species: Rattus norvegicus; assay: Inhibitory activity was determined in rat uterine preparations at a compound dose of 2 ng/mL; format: functional
Rattus norvegicus [5] = species: Rattus norvegicus; assay: Inhibitory activity was determined in rat uterine preparations at a compound dose of 6 ng/mL; format: functional
Rattus norvegicus [6] = species: Rattus norvegicus; assay: Inhibitory activity was determined in rat uterine preparations at a compound dose of 4 ng/mL; format: functional
[7] = molecular target: T2, Angiotensin II receptor (Rattus norvegicus) (UniProt P29089+P25095+P35351); assay: Inhibitory activity was determined against Angiotensin II receptor in rat uterine preparations at a compound dose of 2 ng/mL
Rattus norvegicus [8] = species: Rattus norvegicus; assay: Time period for the pressor response of angiotensin II to return to 50% of its treatment level at a compound dose of 10 ug; format: functional, organism-based
[9] = molecular target: T2, Angiotensin II receptor (Rattus norvegicus); assay: Inhibitory activity was determined against Angiotensin II receptor in rat uterine preparations at a compound dose of 6 ng/mL
[10] = molecular target: T2, Angiotensin II receptor (Rattus norvegicus); assay: Inhibitory activity was determined against Angiotensin II receptor in rat uterine preparations at a compound dose of 4 ng/mL
Rattus norvegicus [11] = species: Rattus norvegicus; assay: Time period for the pressor response of angiotensin II to return to 50% of its treatment level at a compound dose of 30 ug; format: functional, organism-based
Rattus norvegicus [12] = species: Rattus norvegicus; assay: Time period for the pressor response of angiotensin II to return to 50% of its treatment level at a compound dose of 60 ug; format: functional, organism-based

- Ki (Angiotensin II receptor [1]): 52.8 nM
- Ki (Angiotensin II receptor [2]): 9310 nM
Compound: CNCC(=O)N[C@@H](CCCN=C(N)N)C(=O)N[C@H](C(=O)N[C@@H](Cc1ccc(O)cc1)C(=O)N[C@H](C(=O)N[C@@H](Cc1c[nH]cn1)C(=O)N1CCC[C@H]1C(N)=O)C(C)C)C(C)C

- Ki (Angiotensin II receptor [1]): 0.74 nM
- Ki (Angiotensin II receptor [2]): 0.46 nM
Compound: CNCC(=O)N[C@@H](CCCN=C(N)N)C(=O)N[C@H](C(=O)N[C@@H](Cc1ccc(O)cc1)C(=O)N[C@H](C(=O)N[C@@H](Cc1c[nH]cn1)C(=O)N1CCC[C@H]1C(=O)N[C@H](Cc1ccc(-c2ccccc2)cc1)C(=O)O)C(C)C)C(C)C [listing 1 of 2 here]

- Ki (Angiotensin II receptor [1]): 5.48 nM
- Ki (Angiotensin II receptor [2]): 1.64 nM
Compound: H-NRVYVHPF-OH [ANGIOTENSIN AMIDE]
- Activity (Rattus norvegicus [3]): 100%

- Ki (Angiotensin II receptor [1]): 1.23 nM
- Ki (Angiotensin II receptor [2]): 0.85 nM
Compound: CNCC(=O)N[C@@H](CCCN=C(N)N)C(=O)N[C@H](C(=O)N[C@@H](Cc1ccc(O)cc1)C(=O)N[C@H](C(=O)N[C@@H](Cc1c[nH]cn1)C(=O)N1CCC[C@H]1C(=O)N[C@H](C(=O)O)C(c1ccccc1)c1ccccc1)C(C)C)C(C)C [listing 1 of 2 here]

- Ki (Angiotensin II receptor [1]): 6.08 nM
- Ki (Angiotensin II receptor [2]): 1.64 nM
Compound: CNCC(=O)N[C@@H](CCCN=C(N)N)C(=O)N[C@H](C(=O)N[C@@H](Cc1ccc(O)cc1)C(=O)N[C@H](C(=O)N[C@@H](Cc1c[nH]cn1)C(=O)N1CCC[C@H]1C(=O)N[C@@H](C(=O)O)C(c1ccccc1)c1ccccc1)C(C)C)C(C)C [listing 1 of 2 here]

Compound: CNCC(=O)N[C@@H](CCCN=C(N)N)C(=O)N[C@H](C(=O)N[C@@H](Cc1ccc(O)cc1)C(=O)N[C@H](C(=O)N[C@@H](Cc1c[nH]cn1)C(=O)N1CCC[C@H]1C(=O)N[C@H](Cc1ccc(-c2ccccc2)cc1)C(=O)O)C(C)C)C(C)C [listing 2 of 2 here]
- Activity (Rattus norvegicus [4]): 7.2
- Activity (Rattus norvegicus [5]): 44.7
- Activity (Rattus norvegicus [6]): 24.6

Compound: CNCC(=O)N[C@@H](CCCN=C(N)N)C(=O)N[C@H](C(=O)N[C@@H](Cc1ccc(O)cc1)C(=O)N[C@H](C(=O)N[C@@H](Cc1c[nH]cn1)C(=O)N1CCC[C@H]1C(=O)N[C@@H](Cc1ccc(-c2ccccc2)cc1)C(=O)O)C(C)C)C(C)C [listing 1 of 2 here]
- Activity (Rattus norvegicus [4]): 9.2
- Activity (Rattus norvegicus [5]): 208.2
- Activity (Rattus norvegicus [6]): 71.7

- Activity [7]: 1.7
- Activity [9]: 22.2
- Activity [10]: 3.9
Compound: CNCC(=O)N[C@@H](CCCN=C(N)N)C(=O)N[C@H](C(=O)N[C@@H](Cc1ccc(O)cc1)C(=O)N[C@H](C(=O)N[C@@H](Cc1c[nH]cn1)C(=O)N1CCC[C@@H]1C(=O)N[C@H](CC(C)C)C(=O)O)C(C)C)C(C)C
- Recovery time (Rattus norvegicus [8]): 34 min
- Recovery time (Rattus norvegicus [11]): 72 min
- Recovery time (Rattus norvegicus [12]): 83 min

Compound: CNCC(=O)N[C@@H](CCCN=C(N)N)C(=O)N[C@H](C(=O)N[C@@H](Cc1ccc(O)cc1)C(=O)N[C@H](C(=O)N[C@@H](Cc1c[nH]cn1)C(=O)N1CCC[C@H]1C(=O)N[C@@H](C(=O)O)C(c1ccccc1)c1ccccc1)C(C)C)C(C)C [listing 2 of 2 here]
- Activity (Rattus norvegicus [3]): 48%

- Ki (Angiotensin II receptor [1]): 1.74 nM
- Ki (Angiotensin II receptor [2]): 1 nM
Compound: CNCC(=O)N[C@@H](CCCN=C(N)N)C(=O)N[C@H](C(=O)N[C@@H](Cc1ccc(O)cc1)C(=O)N[C@H](C(=O)N[C@@H](Cc1c[nH]cn1)C(=O)N1CCC[C@H]1C(=O)N[C@@H](Cc1ccc(-c2ccccc2)cc1)C(=O)O)C(C)C)C(C)C [listing 2 of 2 here]

- Ki (Angiotensin II receptor [1]): 1.52 nM
- Ki (Angiotensin II receptor [2]): 1.82 nM
Compound: CNCC(=O)N[C@@H](CCCN=C(N)N)C(=O)N[C@H](C(=O)N[C@@H](Cc1ccc(O)cc1)C(=O)N[C@H](C(=O)N[C@@H](Cc1c[nH]cn1)C(=O)N1CCC[C@H]1C(=O)NC1(C(=O)O)Cc2ccccc2C1)C(C)C)C(C)C [listing 1 of 2 here]

Compound: CNCC(=O)N[C@@H](CCCN=C(N)N)C(=O)N[C@H](C(=O)N[C@@H](Cc1ccc(O)cc1)C(=O)N[C@H](C(=O)N[C@@H](Cc1c[nH]cn1)C(=O)N1CCC[C@H]1C(=O)NC1(C(=O)O)Cc2ccccc2C1)C(C)C)C(C)C [listing 2 of 2 here]
- Activity (Rattus norvegicus [4]): 8.7
- Activity (Rattus norvegicus [5]): 31.8
- Activity (Rattus norvegicus [6]): 16.2

Compound: CNCC(=O)N[C@@H](CCCN=C(N)N)C(=O)N[C@H](C(=O)N[C@@H](Cc1ccc(O)cc1)C(=O)N[C@H](C(=O)N[C@@H](Cc1c[nH]cn1)C(=O)N1CCC[C@H]1C(=O)N[C@H](C(=O)O)C(c1ccccc1)c1ccccc1)C(C)C)C(C)C [listing 2 of 2 here]
- Activity (Rattus norvegicus [3]): 284%

— ChEMBL document CHEMBL1124659 (J Med Chem, 1989)
